Laboratory results taken from publication PMC5595280, “Cytotoxicity and anti-tumor effects of new ruthenium complexes on triple negative breast cancer cells” (PLoS ONE, 2017).

Tests used:
Format in all cases: cell-based, human
MDA-MB-231 cells [1] = assay: Boyden chamber migration assay; conditions: 5, 10 and 20 μM, 22 h
Method: Cell migration was also assessed in a chemotactic assay using 24 well Boyden chambers (BD Biosciences) as described earlier. MDA-MB-231 (0.5 x 10^5/350 μL) cells, incubated or not with complex (4) 5, 10 and 20 μM were seeded on the upper chamber in a DMEM incomplete medium (without FBS). In the lower chamber DMEM medium supplemented with 10% FBS was added. Cells were allowed to migrate for 22 h at 37°C and 5% CO2 in a humidified environment. Then, cells that remained in the upper chamber were removed using a cotton swab. Cells that migrated to the other side of the upper chamber membrane were fixed with methanol and stained with 1% toluidine blue. Migrated cells were quantified by manual counting and inhibition ratio was expressed as % of control.

MCF-7 cells = assay: MTT cell proliferation assay; conditions: 24 h of incubation, read-out: IC50 ±SEM MCF-7
Method: (§1) MDA-MB-231 human breast tumor cells and MCF7 human breast tumor cells, obtained from Rio de Janeiro Cell Bank, were maintained at 37°C in 5% CO2 in DMEM medium containing fetal bovine serum (FBS) 10% (Vitrocell). MCF-10A, a non-tumor breast cell line, obtained from Rio de Janeiro Cell Bank, was cultivated in DMEM/F12 medium containing horse serum (HS) 5%, EGF (0.02 mg/mL); hydrocortisone (0.05 mg/mL); cholera toxin (0.001 mg/mL) and insulin (0.01 mg/mL). Both media contained penicillin (100 UI/mL), streptomycin ([…]) and L-glutamine (2 mM).
(§2) Proliferation assays were performed as described earlier. Briefly, cells lines were prepared in a concentration of 1x10^4 cells/100 μL, in complete medium (with 10% FBS), and plated on sterile 96-well plates for 24 h. The culture medium was removed from the wells and a new one, supplemented with 10% FBS and containing different concentrations of (1) [Ru(SO4)(dppb)(bipy)] (2) [Ru(CO3)(dppb)(bipy)], (3), [Ru(C2O4)(dppb)(bipy)], or (4) [Ru(CH3CO2)(dppb)(bipy)]PF6, was added to the wells. Cells were incubated for 24 h under the same conditions as described above. Cell proliferation assay was performed in comparison with untreated control. After incubation, the culture medium of each well was removed and a solution containing MTT (1 mg/mL) was added (100 μL/well). The plates were then kept at 37°C for 4 h and the formed crystals were dissolved in DMSO. The absorbance was read on an ELISA plate reader at a wavelength of 540 nm. […] The selectivity index (SI) was calculated as the ratio IC50 (MCF-10A) / IC50 (MDA-MB-231).
(§3) Each experiment was repeated three times in triplicate and a standard error mean was calculated. Shapiro-Wilk’s test was used to verify data normality. As normal distribution was present, the results were compared statistically with a one-way or two-way analysis of variance (ANOVA). […] The data were analysed and IC50 calculations were made using Hill’s equation in the GraphPad Prism software (version 6.05).

MCF-10A cells [2] = assay: MTT cell proliferation assay; conditions: 24 h of incubation, read-out: IC50 ±SEM MCF-10A
Method: as §1, §2, §3

MDA-MB-231 cells [3] = assay: MTT cell proliferation assay; conditions: 24 h of incubation, read-out: IC50 ±SEM MDA-MB-231
Method: as §1, §2, §3

[4] = test system: Caspase-3, Caspase-9 and Bcl-2 protein levels in MDA-MB-231 cells; assay: Western blotting of apoptosis related proteins; conditions: even at 2.5 μM, 6 h
Method: MDA-MB-231 cells (1.0 x 10^6/plate) were incubated for 6 h with (2.5, 5 and 10μM) or without (control) the complex (4) in Petri dishes (6 cm) at 37°C in a humidified incubator with 5% CO2. After incubation, cells were lysed using RIPA buffer (150 mM NaCl; 50 mM Tris-HCl pH 7.4; 50 mM NaF; 2 mM EDTA; 1.0% NP-40; 0.5 mM Na-deoxycholate; 0.1% SDS, pH 8.0) and the content was transferred to a 1.5 mL microtube. Protein concentrations of supernatants were determined using DC Protein Assay kit (Bio-Rad). […] Beta-actin was used as endogenous control. Substrate development was performed using SuperSignal West Dura Extended Substrate reagent (Thermo Scientific). Specific bands were visualized with ChemiDoc MP imager (BioRad Laboratories) and quantified with Image J software, normalized to β-actin.

MMP-9 = assay: Gelatin zymography of wound healing supernatants; conditions: 24 h
Method: MDA-MB-231 cells (1.0 x 10^5/well) were seeded into 12-wells culture plates and cultured in a medium containing FBS 10% to near confluence (80%) of the cell monolayer. Monolayers were carefully wounded using a pipette tip, and any cellular debris present was removed by washing with PBS. The wounded monolayers were then incubated in serum-free medium containing 2.5, 5, 10 and 20 μM of complex (4) for 24 h. After this time, supernatants of the wound healing assay were collected and tested for MMP secretion as previously described. Briefly, equal amounts of total protein ([…]) were subjected to electrophoresis. Zymography gels consisted of 10% polyacrylamide impregnated with gelatin at a final concentration of 1% in the presence of sodium dodecyl sulfate (SDS) under non-reducing conditions. […] Gels were then stained with coomassie brilliant blue for 30 min and destained in methanol and acetic acid for 20 min. Gelatin degrading enzymes were visualized as clear white bands against a blue background, indicating proteolysis of the substrate protein. The molecular mass of gelatinolytic activities was determined by comparison to reference protein molecular mass marker PageRuler Prestained Protein Ladder (Thermo Fisher Scientific). Activity bands were identified following the previous description according to their molecular weights.

MCF-10A cells [5] = assay: Apoptosis by flow cytometry (PE-Annexin-V / 7AAD); conditions: 20 μM, 3 h
Method: (§4) MDA-MB-231 and MCF-10A cells (1.0 x 10^5/mL) were seeded in 12-well plates in a complete DMEM medium and incubated for 24 h. After this period the medium was removed and cells were incubated or not (control) with different concentrations of complex (4), for 3 h at 37°C and 5% CO2. After treatment the plate was centrifuged at 2000 rpm for 5 min at 4°C, washed with PBS and resuspended in 400 μL of binding buffer from the kit. Cells were incubated with 10 μL of 7AAD and 10 μL of PE-Annexin-V for 15 min protected from light. After the incubation period the supernatant was removed and 400 μL of binding buffer were added to the wells. Cells were then removed from the wells with the aid of a scraper and transferred to flow cytometry tubes. The reading was performed in Accuri C6 flow cytometer (BD Biosciences) and fluorescence emitted by each dye was quantified using CellQuest software (BD Biosciences).

MDA-MB-231 cells [6] = assay: Apoptosis by flow cytometry (PE-Annexin-V / 7AAD); conditions: MDA-MB-231, 20 μM, 3 h
Method: as §4

CC(=O)[O-].F[P-](F)(F)(F)(F)F.[Ru+2].c1ccc(-c2ccccn2)nc1.c1ccc(P(CCCCP(c2ccccc2)c2ccccc2)c2ccccc2)cc1 [Complex (4), [Ru(CH3CO2)(dppb)(bipy)]PF6]
effect on cell migration (Boyden chamber) (MDA-MB-231 cells [1]): inhibited MDA-MB-231 cell migration in a concentration dependent fashion
IC50 (MCF-7 cells): > 200 µM
IC50 (MCF-10A cells [2]): 48.89 ± 0.09 µM
IC50 (MDA-MB-231 cells [3]): 31.16 ± 0.04 µM
cleaved Caspase-3 protein levels [4]: increased
cleaved Caspase-9 protein levels [4]: increased
inhibition of expression of MMP-9 compared to untreated control (MMP-9; 20 μM): 60%
effect on expression of MMP-9 (MMP-9; 2.5, 5 and 10 μM): did not inhibit the expression of MMP-9
cells suffering apoptosis (MCF-10A cells [5]): 14.9%
cells suffering apoptosis (MDA-MB-231 cells [6]): 74.4%
